Laboratory results from patent US12357603B2, “Acyl sulfonamides for treating cancer” (Bayer Aktiengesellschaft, priority 2019, dated 2025).

How the values were obtained:
[1] = system: MDA-MB-436 cells; assay: Proliferation assay MDA-MB-436, negative control cell line (Alamar Blue, 144 h); type: cell-based; conditions: Homo sapiens, MDA-MB-436, 144 h, arithmetic mean
From the text: Proliferation Assays for Compound Characterization
For compound characterization cell survival assays were routinely run in two cell lines. ZR-75-1 is a breast carcinoma cell line containing a focal KAT6A amplification and high KAT6A protein expression. Proliferation of this cell line is inhibited upon treatment with KAT6A inhibitors. As a negative control cell line MDA-MB-436 were used. These cells carry a […] deletion of the KAT6A gene, have a low KAT6A protein expression and are not growth inhibited upon treatment with KAT6A inhibitors.
For measurements cell lines were plated at the below indicated concentration per […] in 96-well plates in a humidified incubator at 37° C. and 5% CO2.
MDA-MB-436 (CLS, 300278; breast adenocarcinoma); 3000 cells per well; culture medium: DMEM/Ham's F12 (Biochrom #FG 4815) medium containing 2.5% FBS (Biochrom #S0615).
24 hours later, cells were treated with compounds (stock solution, 10 mM in DMSO) using the HP D300 Digital Dispenser in a concentration range of 2.0×10E-5 M to 2.0×10E-9 M in a single-dot curve with 9 dilutions and a DMSO concentration of 0.2%. Each sample was prepared as triplicate and rim wells were excluded. Plates were incubated at 37° C. and 5% CO2 for 144 h. Cell viability was measured by adding 10 μL of Alamar Blue Reagent (Invitrogen #DAL 1100) and plates were incubated for 2 h at 37° C. and 5% CO2. Fluorescence was measured at 590 nm wavelength with a Tecan Spark or Victor X3 MTP-Reader (PerkinElmer).

[2] = system: ZR-75-1 cells; assay: Proliferation assay ZR-75-1 (Alamar Blue, 144 h); type: cell-based; conditions: Homo sapiens, ZR-75-1, 144 h, arithmetic mean, read-out: ZR75-1 proliferation assay, EC50 [M] (arithmetic mean)
In short: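 Cells seeded at 3000/well in RPMI 1640 with 2.5% FBS and treated 24 h later across 2.0×10E-5 to 2.0×10E-9 M (9 dilutions, 0.2% DMSO, triplicate). After 144 h at 37 °C, 5% CO2, viability read by Alamar Blue fluorescence at 590 nm following 2 h reagent incubation.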

[3] = target: Recombinant human His-tagged Kat6a protein (amino acids 194-810) (Homo sapiens (Human), UniProt Q92794); assay: Kat6a activity assay (TR-FRET, acetylation of biotinylated Histone-H4-derived peptide); type: biochemical; conditions: 60 mins at 22° C., read-out: KAT6A-DPF/HAT domain IC50 [mol/l] (arithmetic mean)
Recombinant human His-tagged Kat6a protein (amino acids 194-810), sequence (Q92794 194-810): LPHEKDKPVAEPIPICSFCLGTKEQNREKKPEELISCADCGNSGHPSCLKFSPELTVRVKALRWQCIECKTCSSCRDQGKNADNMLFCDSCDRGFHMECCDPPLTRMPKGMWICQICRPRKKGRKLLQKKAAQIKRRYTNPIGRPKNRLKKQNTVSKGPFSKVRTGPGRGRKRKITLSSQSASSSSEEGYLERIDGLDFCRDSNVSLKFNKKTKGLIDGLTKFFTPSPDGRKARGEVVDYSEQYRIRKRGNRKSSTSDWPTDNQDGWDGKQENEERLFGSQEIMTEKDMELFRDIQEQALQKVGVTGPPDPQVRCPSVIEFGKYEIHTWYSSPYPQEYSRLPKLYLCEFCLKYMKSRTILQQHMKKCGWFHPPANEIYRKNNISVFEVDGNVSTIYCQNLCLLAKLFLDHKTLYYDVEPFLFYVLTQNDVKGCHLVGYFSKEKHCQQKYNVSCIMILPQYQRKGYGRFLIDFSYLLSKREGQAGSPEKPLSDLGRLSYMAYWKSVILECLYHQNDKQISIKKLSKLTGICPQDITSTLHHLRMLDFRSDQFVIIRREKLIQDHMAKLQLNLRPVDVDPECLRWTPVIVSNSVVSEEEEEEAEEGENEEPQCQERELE
In short: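 Sf9-expressed human His-Kat6a (aa 194-810) incubated 60 min at 22 °C with compounds (0.01-20 μM) in Tris pH 8 buffer containing 220 nM biotinylated H4 peptide (aa 1-24) and 600 nM acetyl-CoA. Acetyl-K8 detected by TR-FRET (665/620 nm ratio); IC50 by four-parameter fit versus DMSO controls.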

[4] = system: ESR1 transcription (luciferase signal in MVLN cells); assay: Repression of ESR1 transcription, luciferase reporter in MVLN cells; type: cell-based; conditions: Homo sapiens, MVLN, inhibition of luciferase signal in MVLN cells; arithmetic mean
In short: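 MVLN cells (constitutive ER, stably carrying a Vitellogenin A2 hormone-responsive element–luciferase reporter) treated in duplicate; luciferase read after 24 h. Cell density checked by Alamar Blue fluorescence (530/590 nm) after 2 h to exclude cell-loss effects.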

With `COc1cc(S(=O)(=O)NC(=O)c2cc3ccc(N(C)C)cc3o2)cc(Cn2cccn2)c1OC` [Example 103, N-{3,4-Dimethoxy-5-[(1H-pyrazol-1-yl)methyl]benzene-1-sulfonyl}-6-(dimethylamino)-1-benzofuran-2-carboxamide] the EC50 [1] was over 20000 nM, the EC50 [2] was 2.6e-06 M and the IC50 [3] was 1210 nM. The IC50 [4] was 2950 nM.

`CCc1ccccc1S(=O)(=O)NC(=O)c1cc2ccc(N(C)C)cc2o1` [Example 104, 6-(Dimethylamino)-N-(2-ethylbenzene-1-sulfonyl)-1-benzofuran-2-carboxamide] gave an EC50 [1] of over 20000 nM, an EC50 [2] of 3e-06 M and an IC50 [3] of 1100 nM. The IC50 [4] was 3190 nM.

Work on `Cc1cccnc1CS(=O)(=O)NC(=O)c1cc2ccc(N(C)C)cc2o1` [Example 105, 6-(Dimethylamino)-N-[(3-methylpyridin-2-yl)methanesulfonyl]-1-benzofuran-2-carboxamide] yielded an EC50 [1] of over 20000 nM, an EC50 [2] of 3.72e-06 M and an IC50 [3] of 1960 nM. For the same molecule, the IC50 [4] was 11600 nM.

Molecule `Cc1ccc2cccc(S(=O)(=O)NC(=O)c3cc4c(F)cc(N(C)C)cc4o3)c2n1` [Example 108, 6-(Dimethylamino)-4-fluoro-N-(2-methylquinoline-8-sulfonyl)-1-benzofuran-2-carboxamide] has an EC50 [1] of over 18600 nM, an EC50 [2] of 8.07e-08 M and an IC50 [3] of 4.6 nM. It also gave an IC50 [4] of 9.1 nM.

In the case of `CC(C)Oc1ccccc1S(=O)(=O)NC(=O)c1cc2c(F)cc(N(C)C)cc2o1` [Example 109, 6-(Dimethylamino)-4-fluoro-N-{2-[(propan-2-yl)oxy]benzene-1-sulfonyl}-1-benzofuran-2-carboxamide], the EC50 [1] is reported as over 20000 nM, the EC50 [2] is reported as 3.7e-08 M and the IC50 [3] is reported as 7.09 nM. For the same molecule, the IC50 [4] was 9.67 nM.

In the case of `CN(C)c1ccc2cc(C(=O)NS(=O)(=O)c3ccc(Br)cc3OC(F)(F)F)oc2c1` [Example 118, N-[4-Bromo-2-(trifluoromethoxy)benzene-1-sulfonyl]-6-(dimethylamino)-1-benzofuran-2-carboxamide], the EC50 [1] is reported as over 20000 nM, the EC50 [2] is reported as 9.57e-07 M and the IC50 [3] is reported as 52.4 nM. It also gave an IC50 [4] of 555 nM.

With `CCOc1nccc(C(F)(F)F)c1S(=O)(=O)NC(=O)c1cc2ccc(N(C)C)cc2o1` [Example 120, 6-(Dimethylamino)-N-[2-ethoxy-4-(trifluoromethyl)pyridine-3-sulfonyl]-1-benzofuran-2-carboxamide] the EC50 [1] was over 20000 nM, the EC50 [2] was 4.57e-07 M and the IC50 [3] was 1850 nM. For the same molecule, the IC50 [4] was 891 nM.

`CCOc1c(Cl)cccc1S(=O)(=O)NC(=O)c1cc2ccc(N(C)C)cc2o1` [Example 122, N-(3-Chloro-2-ethoxybenzene-1-sulfonyl)-6-(dimethylamino)-1-benzofuran-2-carboxamide] gave an EC50 [1] of over 20000 nM, an EC50 [2] of 9.44e-07 M and an IC50 [3] of 252 nM. For the same molecule, the IC50 [4] was 453 nM.

Work on `CCOc1ccc(NC(C)=O)cc1S(=O)(=O)NC(=O)c1cc2ccc(N(C)C)cc2o1` [Example 128, N-(5-Acetamido-2-ethoxybenzene-1-sulfonyl)-6-(dimethylamino)-1-benzofuran-2-carboxamide] yielded an EC50 [1] of over 20000 nM, an EC50 [2] of 1.49e-06 M and an IC50 [3] of 351 nM. The IC50 [4] was 7800 nM.

In the case of `Cc1ccc(S(=O)(=O)NC(=O)c2cc3ccc(N(C)C)cc3o2)c(N)n1` [Example 130, N-(2-Amino-6-methylpyridine-3-sulfonyl)-6-(dimethylamino)-1-benzofuran-2-carboxamide], the EC50 [1] is reported as 15100 nM, the EC50 [2] is reported as 2.93e-06 M and the IC50 [3] is reported as 2180 nM. The IC50 [4] was 4360 nM.

Molecule `CCc1ncnc(OC)c1S(=O)(=O)NC(=O)c1cc2ccc(N(C)C)cc2o1` [Example 131, 6-(Dimethylamino)-N-(4-ethyl-6-methoxypyrimidine-5-sulfonyl)-1-benzofuran-2-carboxamide] has an EC50 [1] of over 20000 nM, an EC50 [2] of 8.31e-07 M and an IC50 [3] of 470 nM. The IC50 [4] was 325 nM.

`CCCOc1cccc(C)c1S(=O)(=O)NC(=O)c1cc2ccc(N(C)C)cc2o1` [Example 133, 6-(Dimethylamino)-N-(2-methyl-6-propoxybenzene-1-sulfonyl)-1-benzofuran-2-carboxamide] gave an EC50 [1] of over 20000 nM, an EC50 [2] of 4.88e-07 M and an IC50 [3] of 325 nM. It also gave an IC50 [4] of 323 nM.

In the case of `CN(C)c1ccc2cc(C(=O)NS(=O)(=O)c3cc(Br)cnc3Cl)oc2c1` [Example 136], the EC50 [1] is reported as over 20000 nM, the EC50 [2] is reported as 5.54e-06 M and the IC50 [3] is reported as 796 nM. For the same molecule, the IC50 [4] was 15400 nM.

`COc1cccc(S(C)(=O)=O)c1S(=O)(=O)NC(=O)c1cc2ccc(N(C)C)cc2o1` [Example 140, 6-(Dimethylamino)-N-[2-(methanesulfonyl)-6-methoxybenzene-1-sulfonyl]-1-benzofuran-2-carboxamide] gave an EC50 [1] of over 20000 nM, an EC50 [2] of 7.83e-06 M and an IC50 [3] of 5670 nM. For the same molecule, the IC50 [4] was 9650 nM.

For `COc1cccc(S(=O)(=O)N(C)C)c1S(=O)(=O)NC(=O)c1cc2ccc(N(C)C)cc2o1` [Example 141, 6-(Dimethylamino)-N-[2-(dimethylsulfamoyl)-6-methoxybenzene-1-sulfonyl]-1-benzofuran-2-carboxamide], the EC50 [1] was over 20000 nM, the EC50 [2] was 1.92e-06 M and the IC50 [3] was 317 nM. The IC50 [4] was 1760 nM.

`CC(C)Nc1ncc(Br)cc1S(=O)(=O)NC(=O)c1cc2ccc(N(C)C)cc2o1` [Example 145, N-{5-Bromo-2-[(propan-2-yl)amino]pyridine-3-sulfonyl}-6-(dimethylamino)-1-benzofuran-2-carboxamide] showed an EC50 [1] of over 20000 nM, an EC50 [2] of 7.2e-06 M and an IC50 [3] of 438 nM. It also gave an IC50 [4] of 6800 nM.

Molecule `CN(C)c1ccc2cc(C(=O)NS(=O)(=O)c3cc(Br)cnc3NC3CC3)oc2c1` [Example 146, N-[5-Bromo-2-(cyclopropylamino)pyridine-3-sulfonyl]-6-(dimethylamino)-1-benzofuran-2-carboxamide] has an EC50 [1] of over 20000 nM, an EC50 [2] of 3.73e-06 M and an IC50 [3] of 266 nM. The IC50 [4] was 5160 nM.

For `CCCNc1ncc(Br)cc1S(=O)(=O)NC(=O)c1cc2ccc(N(C)C)cc2o1` [Example 150, N-[5-bromo-2-(propylamino)pyridine-3-sulfonyl]-6-(dimethylamino)-1-benzofuran-2-carboxamide], the EC50 [1] was 10200 nM, the EC50 [2] was over 2e-05 M and the IC50 [3] was 429 nM. For the same molecule, the IC50 [4] was 8290 nM.

With `Cc1cccc(Nc2ccncc2S(=O)(=O)NC(=O)c2cc3ccc(N(C)C)cc3o2)c1` [Example 151, 6-(Dimethylamino)-N-[4-(3-methylanilino)pyridine-3-sulfonyl]-1-benzofuran-2-carboxamide] the EC50 [1] was over 20000 nM, the EC50 [2] was 2.87e-06 M and the IC50 [3] was 234 nM. It also gave an IC50 [4] of 9850 nM.

`COc1ccc(S(=O)(=O)NC(=O)c2cc3ccc(N(C)C)cc3o2)cn1` [Example 152, 6-(Dimethylamino)-N-(6-methoxypyridine-3-sulfonyl)-1-benzofuran-2-carboxamide] showed an EC50 [1] of over 20000 nM, an EC50 [2] of 2.16e-06 M and an IC50 [3] of 1400 nM. It also gave an IC50 [4] of 2930 nM.

Molecule `CN(C)c1ccc2cc(C(=O)NS(=O)(=O)c3ccc(N)c4cccnc34)oc2c1` [Example 166, N-(5-Aminoquinoline-8-sulfonyl)-6-(dimethylamino)-1-benzofuran-2-carboxamide] has an EC50 [1] of 6310 nM, an EC50 [2] of 1.5e-07 M and an IC50 [3] of 56.4 nM. The IC50 [4] was 150 nM.

For `CN(C)c1ccc2cc(C(=O)NS(=O)(=O)c3ccccc3OCCN)oc2c1` [Example 167, N-[2-(2-Aminoethoxy)benzene-1-sulfonyl]-6-(dimethylamino)-1-benzofuran-2-carboxamide hydrogen chloride (1/1)], the EC50 [1] was over 20000 nM, the EC50 [2] was 9.52e-06 M and the IC50 [3] was 2060 nM. The IC50 [4] was 9100 nM.

With `CN(C)c1ccc2cc(C(=O)NS(=O)(=O)c3ccccc3OCCOCCOCCOCCNc3ccc([N+](=O)[O-])c4nonc34)oc2c1` [Example 168, 6-(Dimethylamino)-N-(2-{2-[2-(2-{2-[(7-nitro-2,1,3-benzoxadiazol-4-yl)amino]ethoxy}ethoxy)ethoxy]ethoxy}benzene-1-sulfonyl)-1-benzofuran-2-carboxamide] the EC50 [1] was over 20000 nM, the EC50 [2] was 1.24e-05 M and the IC50 [3] was 128 nM. For the same molecule, the IC50 [4] was 8600 nM.

`CCOc1ccc(C(F)(F)F)cc1S(=O)(=O)NC(=O)c1cc2ccc(N(C)C)cc2o1` [Example 172, 6-(Dimethylamino)-N-[2-ethoxy-5-(trifluoromethyl)phenyl]sulfonyl-benzofuran-2-carboxamide] was tested, and the EC50 [1] was over 20000 nM, the EC50 [2] was 8.08e-08 M and the IC50 [3] was 54 nM. The IC50 [4] was 72.3 nM.
